Assays:
[1] = test system: Soluble Abeta40 levels in the rat brain and CSF; experiment: Test 5: In Vivo Inhibitory Activity (Abeta lowering in rat brain and CSF); settings: male Sprague-Dawley rats, oral gavage, 10 micromoles per kilogram, 4 hours prior to sacrifice; n.s.=not statistically significant
Description: Test 5: In Vivo Inhibitory Activity of Example Compounds
Male Sprague-Dawley rats, 220-280 g weight, (Charles River, France) were dosed by oral gavage with vehicle alone (0.1% Tween80, 0.5% methylcellulose in water) or with compound suspended in vehicle at a dose of 10 micromoles compound per kilogram body weight, 4 hours prior to sacrifice. The 4 hour timepoint was selected in order to compare the activity of compounds that have sufficient pharmacokinetic and biodistribution properties to reduce total brain Abeta within approximately three half-lives of the rat brain Abeta40 peptide.
Immediately prior to sacrifice, anaesthetized rat (spontaneous inhalation, 2-5% Isoflurane and air) were fixed in a stereotaxic apparatus on a raised platform, with anesthesia maintained though a nose cone. The angle of the head was tilted downward, perpendicular to the body, and a hypodermic needle lowered through the skin behind the occipital ridge, into the Cisterna magna. Cerebrospinal fluid (CSF) was withdrawn (˜50-100 μL), dispensed into tubes (protein Lo-bind Eppendorf tubes for Abeta40 analysis, normal Eppendorph tubes for compound analysis), frozen on dry ice and stored at −80° C. until analysis. Rats were then immediately decapitated under anesthesia, trunk blood collected for analysis of compound levels and the brain retrieved. One half-forebrain was dissected by removing the cerebellum and olfactory bulbs, frozen in three pieces on a metal plate pre-cooled on frozen CO2 and stored in tubes at −80° C. until analysis for Abeta40. For the other half-brain, olfactory bulbs were discarded and a sagittal slice taken from the medial aspect, weighing ˜200-400 mg, placed in glass HPLC tubes and frozen on dry ice until analysis for compound levels.
Soluble Abeta40 levels in the rat brain and CSF were quantified using a Meso Scale Discovery (MSD) 96-well MULTI-ARRAY human/rodent (4G8) Abeta40 Ultrasensitive Assay (#K110FTE-3, Meso Scale Discovery, Gaithersburg, USA). Forebrain sample homogenates were prepared by sonication in 9 volumes (w/v) of ice cold TBA. Fifty μL of 2% TX-100 in TBS-complete was added to 50 μL aliquots of the homogenate to reach a final concentration of 1% TX-100 in a 1:20 dilution. Samples were incubated on ice for 15 min interrupted with 3 short vortexing steps, then centrifuged (100 000×g, 4° C., 15 min), and 50 μL of supernatant collected. This was further diluted 1:5 with 3% Blocker A solution from the MSD kit to a final dilution of 1:100 and applied to the MSD plate. CSF samples containing blood were excluded. All other CSF samples were diluted with 1% Blocker A solution (from manufacturers kit) to reach a 1:20 CSF dilution. Calibration curves were prepared in 1% Blocker A solution spiked with synthetic Abeta1-40 peptide. Samples and calibration standards were applied in duplicate at a volume of 25 μL per well. Abeta40 concentrations of samples were estimated from the standard curve using SOFTmax PRO4.0.

Human BACE-1 = Human BACE-1 (Homo sapiens (Human), UniProt P56817); experiment: Test 1: Inhibition of Human BACE-1; type: biochemical; settings: recombinant BACE-1, pH 4.5, 1 hour preincubation
Human BACE-1, sequence (P56817 46-457): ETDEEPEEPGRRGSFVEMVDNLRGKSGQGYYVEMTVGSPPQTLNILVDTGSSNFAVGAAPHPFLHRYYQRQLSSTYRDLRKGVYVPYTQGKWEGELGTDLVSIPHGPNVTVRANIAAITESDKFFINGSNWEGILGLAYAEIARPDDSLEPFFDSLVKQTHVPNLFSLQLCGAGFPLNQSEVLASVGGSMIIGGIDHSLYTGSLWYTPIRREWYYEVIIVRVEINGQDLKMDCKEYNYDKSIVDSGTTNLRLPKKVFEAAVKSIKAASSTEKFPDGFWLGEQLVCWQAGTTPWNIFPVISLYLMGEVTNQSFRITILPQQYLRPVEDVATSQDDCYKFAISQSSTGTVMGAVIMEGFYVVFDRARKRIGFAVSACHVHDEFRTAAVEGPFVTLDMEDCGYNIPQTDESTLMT
Description: Test 1: Inhibition of Human BACE-1
(§1) Recombinant BACE-1 (extracellular domain, expressed in baculovirus and purified using standard methods) at 0.1 to 1 nM concentrations is incubated with the test compound at various concentrations for 1 hour at room temperature in 100 mM acetate buffer, pH 4.5, containing 0.1% CHAPS. Activity was measured using a final concentration of 3 μM of the fluorescence-quenched substrate Q-C(HSO3)-Ile-Asp-Leu-Ala-Val-Leu-Asp-HN—CH2—CH2-Mca, where Q=2-nitro-5-amino benzoic acid and Mca=7-methoxy-4-coumarinyl acetic acid. Catalytic turnover was monitored in a Spectramax Gemini fluorescence plate reader (Molecular Devices) in black 96-well microplates using excitation/emission wavelength of 325 nm and 400 nm, respectively. Fluorescence increase was followed for 15 min, in 1 minute's intervals. The fluorescence/time slopes were calculated from duplicate wells and from wells without inhibitor and the IC50 values were calculated using a logistic 4-parameter model.

Human BACE-2 = Human BACE-2 (Homo sapiens (Human), UniProt Q9Y5Z0); experiment: Test 2: Inhibition of Human BACE-2; type: biochemical; settings: recombinant BACE-2, pH 4.5, 1 hour preincubation
Human BACE-2, sequence (Q9Y5Z0 63-473): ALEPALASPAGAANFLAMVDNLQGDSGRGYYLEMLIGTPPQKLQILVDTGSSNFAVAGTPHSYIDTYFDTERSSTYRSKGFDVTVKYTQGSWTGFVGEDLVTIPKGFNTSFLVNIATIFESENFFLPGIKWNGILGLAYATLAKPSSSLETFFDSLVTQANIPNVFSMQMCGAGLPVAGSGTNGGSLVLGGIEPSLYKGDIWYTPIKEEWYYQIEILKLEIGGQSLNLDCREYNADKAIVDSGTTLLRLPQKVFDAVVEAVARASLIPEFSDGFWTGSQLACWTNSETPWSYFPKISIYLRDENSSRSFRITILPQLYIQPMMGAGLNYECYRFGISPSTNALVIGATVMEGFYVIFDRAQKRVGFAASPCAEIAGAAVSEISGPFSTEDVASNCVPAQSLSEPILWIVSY
Description: Test 2: Inhibition of Human BACE-2
as §1, with “BACE-2” for “BACE-1”

[2] = Test 4: Inhibition of Cellular Release of Amyloid Peptide 1-40; type: cell-based, Chinese hamster; settings: Cricetulus griseus; CHO cells with human APP, 24 hours with compound; read-out: Test 4 Amyloid-β1-40 release IC50
Description: The cells are plated at a density of 8000 cells/well into 96-well microtiter plates and cultivated for 24 hours in DMEM cell culture medium containing 10% FCS. The test compound is added to the cells at various concentrations, and the cells are cultivated for 24 hours in the presence of the test compound. […] The potency of the compound is calculated from the percentage of inhibition of amyloid peptide release as a function of the test compound concentration.

Structure (SMILES): C[C@]1(c2nc(NC(=O)c3ncc(C(F)(F)F)cc3Cl)ccc2F)N=C(N)OCC1(F)F [Example 7, 3-Chloro-5-trifluoromethyl-pyridine-2-carboxylic acid [6-((R)-2-amino-5,5-difluoro-4-methyl-5,6-dihydro-4H-[1,3]oxazin-4-yl)-5-fluoro-pyridin-2-yl]-amide]
- Abeta lowering in rat CSF [1]: −67.9%
- Abeta lowering in rat forebrain [1]: −63.6%

Structure (SMILES): CC1(C)OC(N)=NC(C)(c2cc(NC(=O)c3ncc(C#N)cc3Cl)ccc2F)C1(F)F (centres unmarked) [22 WO 2011/069934 A1, reference compound]
- Abeta lowering in rat CSF [1]: −17.9%
- Abeta lowering in rat forebrain [1]: −7.8% (n.s.)

Structure (SMILES): C[C@]1(c2nc(NC(=O)c3nn(C(F)F)cc3Cl)ccc2F)N=C(N)OCC1(F)F [Example 30, 4-Chloro-1-difluoromethyl-1H-pyrazole-3-carboxylic acid [6-((R)-2-amino-5,5-difluoro-4-methyl-5,6-dihydro-4H-[1,3]oxazin-4-yl)-5-fluoro-pyridin-2-yl]-amide]
- IC50 (Human BACE-1): 19 nM
- IC50 (Human BACE-2): 7 nM
- IC50 [2]: 13 nM
- Abeta lowering in rat CSF [1]: −55.2%
- Abeta lowering in rat forebrain [1]: −46.6%

Structure (SMILES): CC1(c2cc(NC(=O)c3nn(C(F)F)cc3Cl)ccc2F)N=C(N)OCC1(F)F (centres unmarked) [71 WO 2011/069934 A1, reference compound]
- Abeta lowering in rat CSF [1]: −30.4%
- Abeta lowering in rat forebrain [1]: 5.6% (n.s.)

Structure (SMILES): CC1(C)OC(N)=N[C@](C)(c2nc(NC(=O)c3ncc(C#N)cc3Cl)ccc2F)C1(F)F [Example 3, 3-Chloro-5-cyano-pyridine-2-carboxylic acid [6-((R)-2-amino-5,5-difluoro-4,6,6-trimethyl-5,6-dihydro-4H-[1,3]oxazin-4-yl)-5-fluoro-pyridin-2-yl]-amide]
- Abeta lowering in rat CSF [1]: −35.3%
- Abeta lowering in rat forebrain [1]: −20.0%

Structure (SMILES): CC1(c2cc(NC(=O)c3ncc(C#N)cc3Cl)ccc2F)N=C(N)OCC1(F)F (centres unmarked) [39 WO 2011/069934 A1, reference compound]
- Abeta lowering in rat CSF [1]: −8.2% (n.s.)
- Abeta lowering in rat forebrain [1]: −1.4% (n.s.)

Structure (SMILES): C[C@]1(c2nc(NC(=O)c3ncc(C#N)cc3Cl)ccc2F)N=C(N)OCC1(F)F [Example 2, 3-Chloro-5-cyano-pyridine-2-carboxylic acid [6-((R)-2-amino-5,5-difluoro-4-methyl-5,6-dihydro-4H-[1,3]oxazin-4-yl)-5-fluoro-pyridin-2-yl]-amide]
- IC50 (Human BACE-1): 12 nM
- IC50 (Human BACE-2): 71 nM
- IC50 [2]: 8 nM
- Abeta lowering in rat CSF [1]: −70.7%
- Abeta lowering in rat forebrain [1]: −67.1%

From patent US9163011B2, “Oxazine derivatives and their use in the treatment of disease” (NOVARTIS AG, priority 2011, dated 2015)
